We go through eight compounds from patent US11592453B2, “Personalized metabolomic profiling of specialized pro-resolving mediators” (THE BRIGHAM AND WOMEN'S HOSPITAL, INC., priority 2016, dated 2023).

The test system of test [1] is CREB and S6 in neutrophils and monocytes. The experiment in a line: Single-cell analysis of intracellular signaling in whole blood leukocytes. It is filed as cell-based, human.
The next test deals with human macrophages. Put plainly: Real-time analysis of phagocytosis of E. coli by human macrophages. The format is cell-based. The conditions noted are these: 1 nM each; for rank of increase in macrophage phagocytosis among individual SPMs: individually. How it is done:
Human peripheral blood mononuclear cells from deidentified healthy human volunteers from the Children's Hospital Boston blood bank were isolated by density-gradient, Ficoll-Histopaque isolation, which was followed by monocyte purification. The monocytes were then cultured for 7 days in RPMI 1640, 10% fetal calf serum (FCS) and were differentiated into macrophages through culturing with granulocyte-macrophage colony-stimulating factor (GM-CSF, 20 ng/ml).
Real-time imaging of human macrophages was performed by plating the cells (50,000 cells/well in PBS++) onto 8-well chamber slides. The chamber slides were kept in a Stage Top Incubation system for microscopes equipped with a built-in digital gas mixer and temperature regulator (TOKAI HIT model INUF-K14). A panel of SPMs (RvE1, RvD1, RvD5, LXB4, and MaR1; 1 nM each or in combination) was added to the macrophages for 15 min, which was followed by the addition of BacLight Green-labeled E. coli (at an E. coli:phagocyte ratio of 50:1). Images were then acquired every 10 min for 3 hours at 37 °C with a Keyence BZ-9000 (BIOREVO) inverted fluorescence phase-contrast microscope (20× objective) equipped with a monochrome-color switching camera using BZ-II Viewer software (Keyence). Mean fluorescence intensity was quantified with a BZ-II Analyzer.

Test [2] has as its system prostaglandin, thromboxane and SPM production in human whole blood. The experiment in a line: LM metabololipidomics of human whole blood during coagulation in the presence of indomethacin. It is filed as cell-based. The conditions noted are these: 100 μM indomethacin. As to the method: FIG. 8 illustrates SPM formation in human blood clots being regulated by lipoxygenase activity. (A and B) Freshly drawn human peripheral blood (4 ml) was placed in silicone-coated tubes at 37° C. for 24 hours and coagulation was stopped by snap-freezing before LC-MS/MS analysis was performed. Concentrations of total SPMs, prostaglandins, and thromboxanes after 24 hours of coagulation (Coag.) in the presence or absence of (A) 100 μM indomethacin (Indo.) (n=six individual donors), (B) 500 nM celecoxib (CLX) or 20 μM BAI (n=three individual donors). Data are means±SEM; *P<0.05 for +BAI vs. Coag; ****P<0.0001 for +Indo vs. Coag. using ratio t-test.
Human whole blood was transferred in 4-ml aliquots to negatively charged, silicone-coated 10-ml tubes (BD) without anticoagulant. For experiments with heparin, the heparinized blood was placed in 15-ml polypropylene tubes before incubation at 37° C. For LM profiling at designated times, all samples were immediately subjected to a workup procedure by which whole blood was snap-frozen in a dry ice/isopropanol bath and were returned to room temperature (×3 cycles) before undergoing centrifugation at 100,000 g at 4° C. Supernatants (and clots for select experiments; see FIG. 6) were collected and were subjected to LC-MS/MS LM metabololipidomics. […]

For test [3], the system named is SPM production in human whole blood. Put plainly: SPM and eicosanoid production during coagulation with heparin, eptifibatide, ADA, celecoxib or BAI. The format is cell-based. As to the method: FIG. 2 illustrates regulators of SPM formation in human blood. (A to E) Freshly drawn human peripheral blood (4 ml) containing heparin (10 U/ml) was placed in polypropylene tubes (A) whereas human peripheral blood without anticoagulant was placed in silicone-coated tubes (B to E) and incubated at 37° C. for the time course of 0 to 24 hours (see Example 1, Materials and Methods). The samples were then subjected to snap-freezing for extraction and LC-MS/MS analysis. (A) Concentrations of the members of the SPM cluster (identified in FIG. 1) in samples treated without (Coag.) or with heparin (10 U/ml) during the incubation period. Data are means±SEM of three individual donors. (B) Left: Combined concentrations of the total SPM cluster, prostaglandins, and thromboxanes after 24 hours of coagulation in the presence or absence of the αIIbβ3 inhibitor eptifibatide (Eptifib.; 20 μM). Middle: Clot volumes after 24 hours of coagulation of the indicated samples. Right: Representative clot images. Data are means±SEM of three individual donors. (C) Concentrations of total SPMs and of the indicated individual SPMs after 24 hours of coagulation in the presence or absence of 200 mU ADA. Data are means±SEM of three individual donors. *P<0.05, **P<0.01 by ratio t-test. (D) Top: LC-MS/MS measurements of adenosine concentrations in whole blood at the indicated time points during coagulation in the presence or absence of ADA. **P<0.01 when compared to the zero-hour time point. Bottom: Flow cytometric analysis of the percentage of neutrophil-platelet aggregates, which were defined as being double-positive for CD16 and CD42b, in whole blood allowed to coagulate for the indicated times in the absence (Coag.) or presence of ADA. Data are means±SEM of five individual donors. *P<0.05, **P <0.01 by student's t test. For dot plots and gating, see FIG. 7B. (E) MS/MS fragmentation profiles with diagnostic ions for the indicated SPMs identified in (C). (F) Left: PCA score plot. Red denotes +ADA for 1 hour; yellow, coagulation for 1 hour; green, coagulation for 24 hours; blue, +ADA for 24 hours. Right: PCA loading plot showing temporal clustering of the indicated mediators from three individual donors. Red denotes LM at 1 hour; blue denotes 24 hours with ADA).
FIG. 8 illustrates SPM formation in human blood clots being regulated by lipoxygenase activity. (A and B) Freshly drawn human peripheral blood (4 ml) was placed in silicone-coated tubes at 37° C. for 24 hours and coagulation was stopped by snap-freezing before LC-MS/MS analysis was performed. Concentrations of total SPMs, prostaglandins, and thromboxanes after 24 hours of coagulation (Coag.) in the presence or absence of (A) 100 μM indomethacin (Indo.) (n=six individual donors), (B) 500 nM celecoxib (CLX) or 20 μM BAI (n=three individual donors). […]

The test system of a further test is E. coli. Put plainly: Whole blood bacterial killing during coagulation. The format is cell-based. Particulars: BAI 200 μM, 24 h. How it is done: FIG. 10 illustrates the inhibitor of SPM formation BAI reduces bacterial killing. Freshly drawn human peripheral blood (4 mL) was placed in silicone-coated tubes at 37° C. for 24 h and was either stopped by snap freezing for LC-MS/MS, or supernatants were placed on LB agar plates and incubated overnight at 37° C. before enumeration of bacterial colonies. (A) Bacterial survival and (B) SPM in human peripheral blood (2.0 mL) incubated with E. coli (7×10^8 CFU) in the presence or absence of a LOX inhibitor (BAI) 200 μM for 24 h; 37° C. (n=4 individual donors). Data are means±SEM; *P<0.05, ****P<0.0001 for +BAI vs. Coag using ratio t-test.
Fresh human blood (2.0 ml) without anticoagulant was incubated with E. coli (˜7×108) in the presence or absence of 200 µM baicalein (a LOX inhibitor; Sigma) and allowed to coagulate at 37° C. for 24 hours. Serum from blood were diluted in PBS on ice and aliquots were placed on LB agar and incubated overnight in a 37° C. incubator. Colonies were enumerated.

Turning to `CC/C=C\C[C@H](O)/C=C/C=C\C=C\C=C\[C@@H](O)[C@@H](O)C/C=C\CCC(=O)O` [RvD1, Resolvin D1 (7S, 8R, 17S-trihydroxy-docosa-4Z, 9E, 11E, 13Z, 15E, 19Z-hexaenoic acid)], the “intracellular signaling in neutrophils and monocytes” value (shortened to “intracellular signaling”) in test [1] was “activated CREB and S6”. Further, the “extent of phagocytosis of E. coli by human macrophages, individual SPMs” value (shortened to “extent of phagocytosis of E. coli”) in the test on human macrophages is “statistically significantly enhanced”.

On to `COc1ccc2c(c1)c(CC(=O)O)c(C)n2C(=O)c1ccc(Cl)cc1` [indomethacin], for which the “total SPM amounts compared to absence of inhibitor” value in test [2] is reported as “did not substantially change”. Besides, the inhibition at 100 µM in test [2] (Homo sapiens, 24 hours vs. coagulation alone, read-out: inhibition of total prostaglandin and thromboxane production) is above 99%.

As to heparin, the “reduction of SPMs in total in blood containing heparin” value in test [3] (heparin 10 U/ml) turned out to be 98%.

On to `CC/C=C\C[C@H](O)/C=C/C=C\C/C=C\C=C\[C@@H](O)C/C=C\CCC(=O)O` [RvD5, Resolvin D5 (7S, 17S-dihydroxy-docosa-4Z, 8E, 10Z, 13Z, 15E, 19Z-hexaenoic acid)], for which the “intracellular signaling” value in test [1] is “activated CREB and S6”.

For `CC[C@@H](O)/C=C/C=C\C[C@@H](O)/C=C/C=C/C=C\[C@@H](O)CCCC(=O)O` [RvE1, Resolvin E1 (5S, 12R, 18R-trihydroxy-eicosa-6Z, 8E, 10E, 14Z, 16E-pentaenoic acid)], in test [1], the “intracellular signaling” value is “activated CREB and S6”. Also, in the test on human macrophages, the “extent of phagocytosis of E. coli” value is “statistically significantly enhanced” and the “rank of increase in macrophage phagocytosis among individual SPMs” value is listed as “greatest increases”.

For `CCCCC[C@H](O)[C@H](O)/C=C/C=C/C=C\C=C\[C@@H](O)CCCC(=O)O` [LXB4, lipoxin B4: (5S, 14R, 15S-trihydroxy-eicosa-6E, 8Z, 10E, 12E-tetraenoic acid)], the “intracellular signaling” value in test [1] was “activated CREB and S6”. In addition, in the test on human macrophages, the “extent of phagocytosis of E. coli” value is given as “statistically significantly enhanced” and the “rank of increase in macrophage phagocytosis among individual SPMs” value is reported as “greatest increases”.

On to `O=c1cc(-c2ccccc2)oc2cc(O)c(O)c(O)c12` [baicalein], for which the “increase in bacterial counts in the presence of the lipoxygenase inhibitor” value with E. coli (P<0.0001) is above 10 fold. For the same compound, in the test with E. coli (with E. coli), the “reduction in the abundances of members of the SPM cluster from coagulation” value is reported as above 80%. In addition, the “total amounts of SPMs” value in test [3] (20 μM BAI, 24 hours) was “reduced the total amounts of SPMs”.

As to `CC/C=C\C/C=C\C[C@H](O)\C=C/C=C/C=C/[C@H](O)C/C=C\CCC(=O)O` [Maresin 1, maresin 1 (7R, 14S-dihydroxy-docosa-4Z, 8E, 10E, 12Z, 16Z, 19Z-hexaenoic acid)], in test [1], the “intracellular signaling” value was “activated CREB and S6”. Moreover, the “extent of phagocytosis of E. coli” value with human macrophages is given as “statistically significantly enhanced”.

What is called inhibition is the change of the read-out against control, counted positive when it falls.
